Reference: US20020137929A1, “1 - (3-heterocyclylphenyl) isothiourea, -isourea, -guanidine and -amidine herbicidal agents” (Intellectual Property Department, BASF Aktiengesellschaft, priority 1998, published 2002)

Experiments:
CYPIR (Rice Flatsedge) [1] = experiment: Preemergence weed control under flooded paddy conditions; format: in vivo, Cyperus iria; conditions: rated 3-4 weeks after treatment
In short: (§1)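 Silt loam, seeds in top 0.5 cm; flood held 1.5-3 cm; test cpd as acetone/water 50/50 into flood water, ~0.0313-0.500 kg/ha a.i.; greenhouse 3-4 wk; visual 0-9 score vs control.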

SETVI (Foxtail, Green) [2] = experiment: Postemergence herbicidal evaluation; format: in vivo, Setaria viridis; conditions: postemergence
In short: (§2)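 First, seedlings were raised for around two weeks. Next, test material in 50/50 acetone/water containing 0.5% TWEEN 20 was sprayed through a nozzle at 40 psi, equivalent to about 0.0156–0.500 kg/ha. Finally, after 4–5 weeks in the greenhouse, plants were rated 0–9.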

[3] = tested on: SAGPY (Arrowhead (Pygmaea)); experiment: Postemergence weed control under flooded paddy conditions; format: in vivo, Sagittaria pygmaea; conditions: postemergence weeds, rated 3 to 4 weeks after treatment
In short: (§3)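 With weeds 3 to 5 cm tall and rice at the 1.5 to 2.5 leaf stage, containers were flooded and water held 1.5 to 3 cm above soil. Compounds in 50/50 v/v aqueous/acetone went into the flood water at about 0.0313 to 0.500 kg/ha a.i. Effects were visually rated 0–9 against controls after three to four weeks in the greenhouse.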

ZEAMX (Corn, Field) [4] = experiment: Preemergence herbicidal evaluation; format: in vivo, Zea mays; conditions: preemergence, rated 4-5 weeks after treatment, 0-9 scale
In short: (§4)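 Seeds were mixed with potting soil and planted on about one inch of soil, then sprayed with test compound in aqueous acetone at about 0.0156 to 0.500 kg per hectare. Plants grew under standard greenhouse care and were visually rated 0-9 against untreated controls 4-5 weeks post-treatment.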

[5] = tested on: ECHORC (Watergrass (Calif.)); experiment: Postemergence weed control under flooded paddy conditions; format: in vivo, Echinochloa oryzoides; conditions: postemergence weeds, rated 3 to 4 weeks after treatment
In short: as §3

CYPSE (Flatsedge) [6] = experiment: Preemergence weed control under flooded paddy conditions; format: in vivo, Cyperus serotinus; conditions: rated 3-4 weeks after treatment
In short: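 Herbicidal effect is scored visually on a 0-9 scale against an untreated control, three to four weeks after compounds are pipetted into the flood water (1.5 to 3 cm deep) over seeds planted in silt loam at 0.5 cm depth. Rates: about 0.0313 to 0.500 kg/ha.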

[7] = tested on: ECHORC (Watergrass (Calif.)); experiment: as above; format: in vivo, Echinochloa oryzoides; conditions: rated 3-4 weeks after treatment
In short: as §1

SETVI (Foxtail, Green) [8] = experiment: Preemergence herbicidal evaluation; format: in vivo, Setaria viridis; conditions: preemergence, rated 4-5 weeks after treatment, 0-9 scale
In short: as §4

[9] = tested on: TRZAWR (Wheat, Winter, cv Riband); experiment: Preemergence herbicidal evaluation; format: in vivo, Triticum aestivum; conditions: preemergence, rated 4-5 weeks after treatment, 0-9 scale
In short: as §4

CYPIR (Rice Flatsedge) [10] = experiment: Postemergence weed control under flooded paddy conditions; format: in vivo, Cyperus iria; conditions: postemergence weeds, rated 3 to 4 weeks after treatment
In short: as §3

CYPSE (Flatsedge) [11] = experiment: as above; format: in vivo, Cyperus serotinus; conditions: postemergence weeds, rated 3 to 4 weeks after treatment
In short: as §3

ORYSAT (Rice, Tebonnet) = experiment: Postemergence herbicidal evaluation; format: in vivo, Oryza sativa, (L.) Tebonnet; conditions: postemergence
In short: as §2

ZEAMX (Corn, Field) [12] = experiment: Postemergence herbicidal evaluation; format: in vivo, Zea mays; conditions: postemergence
In short: as §2

ECHCG (Barnyardgrass) = experiment: Preemergence herbicidal evaluation; format: in vivo, Echinochloa crus-galli; conditions: preemergence, rated 4-5 weeks after treatment, 0-9 scale
In short: as §4

CN1C(=O)C(CC(=O)Nc2ccccc2)SC1=Nc1cc(-n2c(=O)cc(C(F)(F)F)n(C)c2=O)c(F)cc1Cl (stereo not drawn) [Compound 91, 2-{{2-Chloro-5-[3,6-dihydro-3-methyl-2,6-dioxo-4-(trifluoromethyl)-1(2H)-pyrimidinyl]-4-fluorophenyl}imino}-3-methyl-4-oxo-5-thiazolidineacetanilide]
CYPIR herbicidal effect rating (CYPIR (Rice Flatsedge) [1]; 0.0313 kg/ha): 0.0
CYPIR herbicidal effect rating (CYPIR (Rice Flatsedge) [1]; 0.0625 kg/ha): 0.0
CYPIR herbicidal effect rating (CYPIR (Rice Flatsedge) [1]; 0.1250 kg/ha): 0.0
CYPIR herbicidal effect rating (CYPIR (Rice Flatsedge) [1]; 0.2500 kg/ha): 0.0
SETVI herbicidal rating (SETVI (Foxtail, Green) [2]; rate 0.0158 kg/ha): 0.0
SETVI herbicidal rating (SETVI (Foxtail, Green) [2]; rate 0.0315 kg/ha): 0.0
SETVI herbicidal rating (SETVI (Foxtail, Green) [2]; rate 0.0630 kg/ha): 0.0
Herbicidal rating SAGPY ([3]; Rate 0.0313 kg/ha): 0.0
Herbicidal rating SAGPY ([3]; Rate 0.0625 kg/ha): 0.0
Herbicidal rating SAGPY ([3]; Rate 0.1250 kg/ha): 0.0
Herbicidal rating SAGPY ([3]; Rate 0.2500 kg/ha): 0.0
ZEAMX rating (ZEAMX (Corn, Field) [4]; 0.1250 kg/ha): 0.0
ZEAMX rating (ZEAMX (Corn, Field) [4]; 0.2500 kg/ha): 0.0
Herbicidal rating ECHORC ([5]; Rate 0.0313 kg/ha): 0.0
Herbicidal rating ECHORC ([5]; Rate 0.0625 kg/ha): 0.0
Herbicidal rating ECHORC ([5]; Rate 0.1250 kg/ha): 2.0
Herbicidal rating ECHORC ([5]; Rate 0.2500 kg/ha): 4.0
CYPSE herbicidal effect rating (CYPSE (Flatsedge) [6]; 0.0313 kg/ha): 0.0
CYPSE herbicidal effect rating (CYPSE (Flatsedge) [6]; 0.0625 kg/ha): 0.0
CYPSE herbicidal effect rating (CYPSE (Flatsedge) [6]; 0.1250 kg/ha): 0.0
CYPSE herbicidal effect rating (CYPSE (Flatsedge) [6]; 0.2500 kg/ha): 0.0
ECHORC herbicidal effect rating ([7]; 0.0313 kg/ha): 0.0
ECHORC herbicidal effect rating ([7]; 0.0625 kg/ha): 0.0
ECHORC herbicidal effect rating ([7]; 0.1250 kg/ha): 2.0
ECHORC herbicidal effect rating ([7]; 0.2500 kg/ha): 4.0
SETVI rating (SETVI (Foxtail, Green) [8]; 0.1250 kg/ha): 0.0
SETVI rating (SETVI (Foxtail, Green) [8]; 0.2500 kg/ha): 0.0
TRZAWR rating ([9]; 0.1250 kg/ha): 0.0
TRZAWR rating ([9]; 0.2500 kg/ha): 0.0
Herbicidal rating CYPIR (CYPIR (Rice Flatsedge) [10]; Rate 0.0313 kg/ha): 0.0
Herbicidal rating CYPIR (CYPIR (Rice Flatsedge) [10]; Rate 0.0625 kg/ha): 0.0
Herbicidal rating CYPIR (CYPIR (Rice Flatsedge) [10]; Rate 0.1250 kg/ha): 0.0
Herbicidal rating CYPIR (CYPIR (Rice Flatsedge) [10]; Rate 0.2500 kg/ha): 0.0
Herbicidal rating CYPSE (CYPSE (Flatsedge) [11]; Rate 0.0313 kg/ha): 0.0
Herbicidal rating CYPSE (CYPSE (Flatsedge) [11]; Rate 0.0625 kg/ha): 0.0
Herbicidal rating CYPSE (CYPSE (Flatsedge) [11]; Rate 0.1250 kg/ha): 0.0
Herbicidal rating CYPSE (CYPSE (Flatsedge) [11]; Rate 0.2500 kg/ha): 0.0
ORYSAT herbicidal rating (ORYSAT (Rice, Tebonnet); rate 0.0158 kg/ha): 1.0
ORYSAT herbicidal rating (ORYSAT (Rice, Tebonnet); rate 0.0315 kg/ha): 1.0
ORYSAT herbicidal rating (ORYSAT (Rice, Tebonnet); rate 0.0630 kg/ha): 2.0
ZEAMX herbicidal rating (ZEAMX (Corn, Field) [12]; rate 0.0158 kg/ha): 4.0
ZEAMX herbicidal rating (ZEAMX (Corn, Field) [12]; rate 0.0315 kg/ha): 4.0
ZEAMX herbicidal rating (ZEAMX (Corn, Field) [12]; rate 0.0630 kg/ha): 5.0
ECHCG rating (ECHCG (Barnyardgrass); 0.1250 kg/ha): 0.0
ECHCG rating (ECHCG (Barnyardgrass); 0.2500 kg/ha): 0.0
